From patent US20060276464A1, “Diarylsulfone sulfonamides and use thereof” (Wyeth, priority 2005, published 2006) come the findings set out here.

Read-outs that look alike come from different tables or passages of the source.

The target of the data set is T1, SFRP-1 (Homo sapiens, UniProt Q8N474).
T1 sequence (Q8N474 32-314): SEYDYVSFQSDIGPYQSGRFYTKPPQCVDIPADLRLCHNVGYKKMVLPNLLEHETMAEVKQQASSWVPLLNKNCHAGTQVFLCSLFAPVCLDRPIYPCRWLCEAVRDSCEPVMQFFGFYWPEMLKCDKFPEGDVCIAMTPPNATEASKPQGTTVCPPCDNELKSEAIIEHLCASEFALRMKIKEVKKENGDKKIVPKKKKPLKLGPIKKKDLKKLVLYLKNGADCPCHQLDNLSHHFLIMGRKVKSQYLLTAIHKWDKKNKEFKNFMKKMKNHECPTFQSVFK
Nature of the data set: Cell-based assay for in vitro measurement of SFRP-1/SARP2 antagonist activity (U2OS cells co-transfected with 16x TCF-tk-Luciferase reporter, Wnt and hSFRP-1).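 On all read-outs here: U2OS cells co-transfected with a TCF-tk luciferase reporter, a Wnt vector, hSFRP-1 or empty vector and CMV-βgal, luciferase luminescence read in cell lysates alongside βgal activity.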 Conditions: for fold induction at 15 µM / fold induction at 30 µM: U2OS.

Where [1] appears, read: read-out: Fold Induction with SFRP-1, Conc 15 μM, with SFRP-1, fold induction over SFRP-1 control, single dose.
Where [2] appears, read: read-out: Fold Induction without SFRP-1, Conc 15 μM, without SFRP-1, single dose.
Where [3] appears, read: read-out: Fold Induction with SFRP-1, Conc 30 μM, with SFRP-1, fold induction over SFRP-1 control, single dose.
[4] abbreviates: read-out: Fold Induction without SFRP-1, Conc 30 μM, without SFRP-1, single dose.

With `CC(=O)NCCNS(=O)(=O)c1cc(S(=O)(=O)c2ccc(F)cc2)ccc1C` [Example 168, N-{2-[({5-[(4-fluorophenyl)sulfonyl]-2-methylphenyl}sulfonyl)amino]ethyl}acetamide], the fold induction at 15 µM amounted to 1.7 under setting [1] and 0.9 under setting [2].

Regarding `Cc1ccc(S(=O)(=O)c2ccc(F)cc2)cc1S(=O)(=O)NCCCN1CCCC1=O` [Example 170, 5-[(4-fluorophenyl)sulfonyl]-2-methyl-N-[3-(2-oxopyrrolidin-1-yl)propyl]benzenesulfonamide], the fold induction at 15 µM runs as follows: under setting [1], 2.3; under setting [2], 0.9.

As for `CCN(CC)CCNS(=O)(=O)c1cc(S(=O)(=O)c2ccc(F)cc2)ccc1C` [Example 171, N-[2-(diethylamino)ethyl]-5-[(4-fluorophenyl)sulfonyl]-2-methylbenzenesulfonamide], the fold induction at 15 µM runs as follows: under setting [1], 2.2; under setting [2], 1.2.

Take `Cc1ccc(S(=O)(=O)c2ccc(F)cc2)cc1S(=O)(=O)NCCN(C)C` [Example 172, N-[2-(dimethylamino)ethyl]-5-[(4-fluorophenyl)sulfonyl]-2-methylbenzenesulfonamide]: the fold induction at 15 µM amounted to 1.9 under setting [1] and 1.1 under setting [2].

Regarding `COCCCNS(=O)(=O)c1cc(S(=O)(=O)c2ccc(F)cc2)ccc1C` [Example 173, 5-[(4-fluorophenyl)sulfonyl]-N-(3-methoxypropyl)-2-methylbenzenesulfonamide], the “Fold Induction with SFRP-1” value (Conc 15 μM, with SFRP-1, fold induction over SFRP-1 control, single dose) worked out at 2 fold. Moreover, under “Conc 15 μM, without SFRP-1, single dose”, the “Fold Induction without SFRP-1” value amounted to 1 fold. Further, the fold induction at 15 µM under setting [1] amounted to 2.5 and the fold induction at 15 µM under setting [2] was found to be 0.8.

As for `Cc1ccc(S(=O)(=O)c2ccc(F)cc2)cc1S(=O)(=O)NCCCN(C)C` [Example 174, N-[3-(dimethylamino)propyl]-5-[(4-fluorophenyl)sulfonyl]-2-methylbenzenesulfonamide], the fold induction at 15 µM is 2.8 under setting [1] and 1.2 under setting [2].

`COCCNS(=O)(=O)c1cc(S(=O)(=O)c2ccc(F)cc2)ccc1C` [Example 175, 5-[(4-fluorophenyl)sulfonyl]-N-(2-methoxyethyl)-2-methylbenzenesulfonamide]: the fold induction at 15 µM reads like this: under setting [1], 2.5; under setting [2], 0.9.

Regarding `CCN(CC)CCCNS(=O)(=O)c1cc(S(=O)(=O)c2ccc(F)cc2)ccc1C` [Example 176, N-[3-(diethylamino)propyl]-5-[(4-fluorophenyl)sulfonyl]-2-methylbenzenesulfonamide], the fold induction at 15 µM under setting [1] was determined as 2.6 and the fold induction at 15 µM under setting [2] came to 1.3.

As to `Cc1ccc(S(=O)(=O)c2ccc(F)cc2)cc1S(=O)(=O)NCCCN1CCCC1` [Example 178, 5-[(4-fluorophenyl)sulfonyl]-2-methyl-N-(3-pyrrolidin-1-ylpropyl)benzenesulfonamide], the fold induction at 15 µM is, setting by setting: under setting [1], 2.8; under setting [2], 1.5.

`Cc1ccc(S(=O)(=O)c2ccc(F)cc2)cc1S(=O)(=O)NCCCN1CCN(C)CC1` [Example 179, 5-[(4-fluorophenyl)sulfonyl]-2-methyl-N-[3-(4-methylpiperazin-1-yl)propyl]benzenesulfonamide]: the fold induction at 15 µM reads like this: under setting [1], 2; under setting [2], 1.1.

As for `Cc1ccc(S(=O)(=O)c2ccc(F)cc2)cc1S(=O)(=O)NCCC(=O)O` [Example 180, N-({5-[(4-fluorophenyl)sulfonyl]-2-methylphenyl}sulfonyl)-beta-alanine], the fold induction at 15 µM was 1.2 under setting [1] and 1 under setting [2].

On to `NC(=O)CCNS(=O)(=O)c1cccc(S(=O)(=O)c2ccccc2)c1` [Example 181, N^3-{[3-(phenylsulfonyl)phenyl]sulfonyl}-beta-alaninamide], for which the fold induction at 30 µM is, setting by setting: under setting [3], 0.6; under setting [4], 1.

As for `COC(=O)CCNS(=O)(=O)c1cccc(S(=O)(=O)c2ccccc2)c1` [Example 182, methyl N-{[3-(phenylsulfonyl)phenyl]sulfonyl}-beta-alaninate], the fold induction at 30 µM is, setting by setting: under setting [3], 1; under setting [4], 1.

Regarding `N#CCCNS(=O)(=O)c1cccc(S(=O)(=O)c2ccccc2)c1` [Example 183, N-(2-cyanoethyl)-3-(phenylsulfonyl)benzenesulfonamide], the fold induction at 30 µM reads like this: under setting [3], 1.3; under setting [4], 1.

`O=S(=O)(NCCc1ccccn1)c1cccc(S(=O)(=O)c2ccccc2)c1` [Example 184, 3-(phenylsulfonyl)-N-(2-pyridin-2-ylethyl)benzenesulfonamide]: the fold induction at 30 µM reads like this: under setting [3], 1.2; under setting [4], 0.9.

`O=S(=O)(NCCCN1CCOCC1)c1cccc(S(=O)(=O)c2ccccc2)c1` [Example 185, N-(3-morpholin-4-ylpropyl)-3-(phenylsulfonyl)benzenesulfonamide]: the fold induction at 30 µM stood at 1.3 under setting [3] and 1.1 under setting [4].

Turning to `CN1CCCC1CCNS(=O)(=O)c1cccc(S(=O)(=O)c2ccccc2)c1` (stereo not shown) [Example 186, N-[2-(1-methylpyrrolidin-2-yl)ethyl]-3-(phenylsulfonyl)benzenesulfonamide], the fold induction at 30 µM is, setting by setting: under setting [3], 1.3; under setting [4], 1.3.

Regarding `O=S(=O)(NCCc1ccncc1)c1cccc(S(=O)(=O)c2ccccc2)c1` [Example 187, 3-(phenylsulfonyl)-N-(2-pyridin-4-ylethyl)benzenesulfonamide], the fold induction at 30 µM amounted to 1.9 under setting [3] and 1 under setting [4].

As for `O=S(=O)(NCCN1CCCCC1)c1cccc(S(=O)(=O)c2ccccc2)c1` [Example 188, 3-(phenylsulfonyl)-N-(2-piperidin-1-ylethyl)benzenesulfonamide], the fold induction at 30 µM under setting [3] was found to be 1.4 and the fold induction at 30 µM under setting [4] amounted to 1.4.

With `O=S(=O)(NCCc1c[nH]cn1)c1cccc(S(=O)(=O)c2ccccc2)c1` [Example 189, N-[2-(1H-imidazol-4-yl)ethyl]-3-(phenylsulfonyl)benzenesulfonamide], the fold induction at 30 µM reads like this: under setting [3], 1.3; under setting [4], 1.

As for `CC(=O)NCCNS(=O)(=O)c1cccc(S(=O)(=O)c2ccccc2)c1` [Example 190, N-[2-({[3-(phenylsulfonyl)phenyl]sulfonyl}amino)ethyl]acetamide], the fold induction at 30 µM reads like this: under setting [3], 1.2; under setting [4], 1.

Take `O=S(=O)(NCCN1CCOCC1)c1cccc(S(=O)(=O)c2ccccc2)c1` [Example 191, N-(2-morpholin-4-ylethyl)-3-(phenylsulfonyl)benzenesulfonamide]: the fold induction at 30 µM under setting [3] came out at 1.2 and the fold induction at 30 µM under setting [4] is 1.2.

With `O=C1CCCN1CCCNS(=O)(=O)c1cccc(S(=O)(=O)c2ccccc2)c1` [Example 192, N-[3-(2-oxopyrrolidin-1-yl)propyl]-3-(phenylsulfonyl)benzenesulfonamide], the fold induction at 30 µM under setting [3] is 1.1 and the fold induction at 30 µM under setting [4] worked out at 1.1.

Regarding `CCN(CC)CCNS(=O)(=O)c1cccc(S(=O)(=O)c2ccccc2)c1` [Example 193, N-[2-(diethylamino)ethyl]-3-(phenylsulfonyl)benzenesulfonamide], the fold induction at 30 µM under setting [3] was determined as 1.2 and the fold induction at 30 µM under setting [4] was determined as 1.3.

As for `CN(C)CCNS(=O)(=O)c1cccc(S(=O)(=O)c2ccccc2)c1` [Example 194, N-[2-(dimethylamino)ethyl]-3-(phenylsulfonyl)benzenesulfonamide], the fold induction at 30 µM runs as follows: under setting [3], 1.3; under setting [4], 1.2.

As to `COCCCNS(=O)(=O)c1cccc(S(=O)(=O)c2ccccc2)c1` [Example 195, N-(3-methoxypropyl)-3-(phenylsulfonyl)benzenesulfonamide], the fold induction at 30 µM was found to be 1.2 under setting [3] and 0.9 under setting [4].

Consider `CN(C)CCCNS(=O)(=O)c1cccc(S(=O)(=O)c2ccccc2)c1` [Example 196, N-[3-(dimethylamino)propyl]-3-(phenylsulfonyl)benzenesulfonamide], for which the fold induction at 30 µM turned out to be 1.4 under setting [3] and 1.3 under setting [4].

For `COCCNS(=O)(=O)c1cccc(S(=O)(=O)c2ccccc2)c1` [Example 197, N-(2-methoxyethyl)-3-(phenylsulfonyl)benzenesulfonamide], the fold induction at 30 µM reads like this: under setting [3], 1.1; under setting [4], 1.2.

For the molecule `CCN(CC)CCCNS(=O)(=O)c1cccc(S(=O)(=O)c2ccccc2)c1` [Example 198, N-[3-(diethylamino)propyl]-3-(phenylsulfonyl)benzenesulfonamide], the fold induction at 30 µM reads like this: under setting [3], 1.1; under setting [4], 1.3.

As to `O=S(=O)(NCCCn1ccnc1)c1cccc(S(=O)(=O)c2ccccc2)c1` [Example 199, N-[3-(1H-imidazol-1-yl)propyl]-3-(phenylsulfonyl)benzenesulfonamide], the fold induction at 30 µM amounted to 1.1 under setting [3] and 1 under setting [4].

As to `O=S(=O)(NCCCN1CCCC1)c1cccc(S(=O)(=O)c2ccccc2)c1` [Example 200, 3-(phenylsulfonyl)-N-(3-pyrrolidin-1-ylpropyl)benzenesulfonamide], the fold induction at 30 µM by setting is: under setting [3], 1.4; under setting [4], 1.8.
